Twelve molecules from the SangsterLogP compilation can be followed below.

One may read the logP as the decadic logarithm of the partition coefficient of the neutral form, usually between octanol and water. As to `CN1C(=O)NC(c2ccccc2)(c2ccccc2)C1=O`, the logP worked out at 2.28.

As for `CCN1C(=O)NC(Cc2ccccc2)C1=O` (configuration not stated), the logP worked out at 1.61. In the case of `O=C1CNC(=O)N1Cc1ccccc1` it was 0.82. As to `O=C1CNC(=O)N1`, the logP is -1.53. For `CCC1(c2ccccc2)NC(=O)N(C)C1=O` (configuration not stated), the logP was found to be 1.69.

Regarding `O=C1NC(=O)C(Cc2ccccc2)(Cc2ccccc2)N1`, the logP was found to be 2.46. Take `CC1NC(=O)NC1=O` (configuration not stated): the logP was -0.95. With `O=C1NC(Cc2ccccc2)C(=O)N1Cc1ccccc1` (configuration not stated) the figure was 2.84; with `O=C1NC(Cc2ccccc2)C(=O)N1c1ccccc1` (configuration not stated), 2.27.

As to `CN1CC(=O)N(c2ccccc2)C1=O`, the logP was 0.14. Regarding `CC(C)CC1NC(=O)NC1=O` (configuration not stated), the logP amounted to 0.35.

Molecule `CC(C)C1NC(=O)NC1=O` (configuration not stated) showed a logP of -0.36.
